Source: US20150051264A1, “INHIBITORS OF NOX4 EXPRESSION AND /OR NOX4 FUNCTION AND THEIR USE IN THE PREVENTION AND TREATMENT OF NERVE INJURY AND/OR NEUROPATHIC PAIN” (FRAUNHOFER-GESELLSCHAFT ZUR FOERDERUNG DER ANGEWANDTEN …, priority 2011, published 2015)

Columns and labels:
[1] = system: Nox4 mRNA; assay: Nox4 mRNA expression by quantitative real-time RT-PCR after tamoxifen induction in Nox4-CreERT2 mice; type: in vivo, mouse; conditions: tamoxifen 1 mg/d i.p. for 3 d
Method: Tamoxifen induction. Tamoxifen (Sigma Aldrich) was prepared by dissolving in ethanol (10 mg per 100 μl) and mixing this solution with 900 μl corn oil for a final concentration of 10 mg/ml. Eight- to ten-week-old Nox4-CreERT2 mice were i.p. injected with 100 μl tamoxifen solution (1 mg, corresponding to about 40 mg/kg tamoxifen) once a day at 10, 11 and 12 d after SNI.
Mice were exsanguinated under deep isoflurane anaesthesia, and tissues were dissected, snap frozen in liquid nitrogen and stored at −80° C. Total RNA from spinal cord, brain and DRGs was extracted under RNase-free conditions using a RNA isolation kit (for spinal cord and brain: RNeasy® Lipid Tissue Mini Kit; Qiagen; for DRGs: RNAqueous Micro Kit; Ambion) according to the manufacturer's instructions, DNase treated for 15 min to minimize genomic DNA contamination and quantified with a NanoDrop® ND-1000 spectrophotometer (NanoDrop® Technologies). cDNA was synthesized using 200 ng RNA, random hexamer primers, RT-Enhancer and the Verso®-enzyme of the Verso® Kit (Thermo Scientific). Real-time RT-PCR was performed with an ABI Prism® 7500 Sequence Detection System (Applied Biosystems) using TaqMan Gene Expression Assays for murine Nox4 (Mm01317086_ml), Nox1 (Mm00549170_m1), Nox2 (Mm01287742_m1), Nox3 (Mm01339132_m1), GAPDH (Mm99999915_μl) and β-actin (Mm00607939_s1), purchased from Applied Biosystems. […] Relative expression of target gene levels was determined using the comparative ΔΔCt method, with Ct indicating the cycle number at which the signal of the PCR product crosses an arbitrary threshold set within the exponential phase of the PCR. […]
(§1) Global gene ablation may cause developmental compensatory adaptations that might affect phenotypic changes in the genetically manipulated adult animal. […] Ten days after SNI, mice were i.p. injected with tamoxifen (1 mg/d for 3 d) to activate Cre recombinase and knock-down Nox4, and paw withdrawal latency times were measured up to 21 d after the first injection.

[2] = system: Nox4-CreERT2 mice; assay: Mechanical allodynia (paw withdrawal latency) in the spared nerve injury (SNI) model after tamoxifen induction; type: in vivo, mouse; conditions: tamoxifen 1 mg/d i.p. for 3 d starting 10 d after SNI, observed up to 21 d, no effect in the first 7 d or in tamoxifen-treated control mice
Method: Mechanical paw sensitivity. Paw withdrawal latency after mechanical stimulation was measured with an automated von Frey-type testing device (Dynamic Plantar Aesthesiometer; Ugo Basile) which allows for reliable detection of mechanical sensitivity in mice (Schmidtko et al., 2008). The stainless steel probe of the touch stimulator unit was pushed against the paw with ascending force until a strong and immediate withdrawal occurred. The maximum force was set at 5 g and the ramp speed was 0.5 g/s. The paw withdrawal latency was calculated as the mean of 4-6 measurements with at least 20 s in between.
Neuropathic pain. The “spared nerve injury” (SNI) model and the “chronic constriction injury” (CCI) model were used to investigate neuropathic pain behavior. Surgery was carried out under isoflurane anaesthesia. For SNI, two branches of the sciatic nerve were ligated and cut distally, leaving the sural nerve intact (Decosterd and Woolf, 2000). […]
as §1

CC/C(=C(\c1ccccc1)c1ccc(OCCN(C)C)cc1)c1ccccc1 [tamoxifen, Tamoxifen]
Nox4 mRNA in DRGs as compared to vehicle-treated Nox4-CreERT2 mice ([1]; Nox4-CreERT2 mice, SNI, 21 d after tamoxifen treatment, P=0.008): 54% | Nox4 mRNA in the spinal cord as compared to vehicle-treated Nox4-CreERT2 mice ([1]; Nox4-CreERT2 mice, SNI, 21 d after tamoxifen treatment, P=0.116): 83% | Nox4 mRNA in DRGs, of baseline levels ([1]; 21 d after treatment, no significant reduction in the spinal cord): ~50% | Mechanical allodynia (paw withdrawal latency after mechanical stimulation) [2]: gradually recovered from mechanical allodynia
